{"source": "patent US6576595B1", "about": "“Xanthone derivatives, processes for their preparation and their use for controlling harmful fungi, and compositions comprising these derivatives” (BASF Aktiengesellschaft, priority 2001, dated 2003)", "key": {"[1]": {"test_system": "mildew of wheat (Blumeria graminis forma specialis tritici)", "assay": "activity against powdery mildew of wheat (protective spray test on potted wheat seedlings)", "type": "in vivo", "conditions": "wheat seedlings cultivar Kanzler, sprayed 24 h before inoculation, assessed visually after 7 days, untreated plants 90% infected", "protocol": "The active compounds were prepared separately or jointly as a 10% strength emulsion in a mixture of 70% by weight of cyclohexanone, 20% by weight of Nekanil® LN (Lutensol® AP6, wetting agent having emulsifying and dispersing action based on ethoxylated alkylphenols) and 10% by weight of Wettol® EM (nonionic emulsifier based on ethoxylated castor oil) and diluted with water to the desired concentration.\nUse example—activity against powdery mildew of wheat\nLeaves of potted wheat seedlings of the cultivar “Kanzler” were sprayed to runoff point with an aqueous preparation of active compound which had been prepared from a stock solution of 10% of active compound, 63% of cyclohexanone and 27% of emulsifier. 24 hours after the spray coating had dried on, the leaves were dusted with spores of mildew of wheat (Blumeria graminis forma specialis tritici). The test plants were then placed in a greenhouse at 20-24° C. and 60 to 90% relative atmospheric humidity.\nAfter 7 days, the extent of the mildew development was determined visually in % infection of the entire leaf area."}}, "data": [{"compound": "COc1cc(C)c2c(=O)c3c(oc2c1OC)C(Br)=CCC3(C)OC", "note": "(centres unmarked)", "values": [{"measurement": "melting point", "value": 162, "unit": "°C"}]}, {"compound": "COc1cc(C)c2c(=O)c3c(OC)cccc3oc2c1OC", "values": [{"measurement": "melting point", "value": 158, "unit": "°C"}]}, {"compound": "COc1cc(C)c2c(=O)c3c(C)c(Cl)ccc3oc2c1OC", "note": "[I-5, 7-chloro-3,4-dimethoxy-1,8-dimethylxanthen-9-one]", "values": [{"measurement": "melting point", "value": 180, "unit": "°C"}, {"measurement": "extent of the mildew development in % infection of the entire leaf area", "setting": "[1]; 4 ppm active compound", "value": "not more than 3%"}, {"measurement": "extent of the mildew development in % infection of the entire leaf area", "setting": "[1]; 16 ppm active compound", "value": "not more than 3%"}]}]}
